Data from patent publication US6150385A, “1,3,4-thiadiazoles useful for the treatment of CMV infections” (Pharmacia & Upjohn Company, priority 1999, dated 2000).

Molecular target: T1, HCMV polymerase (Human cytomegalovirus, UniProt P08546)
T1 construct: made in house; host or cells: SF-9 insect cells infected with recombinant baculovirus
Test: HCMV polymerase assay (scintillation proximity assay)
Type: biochemical
Settings: percentage of inhibition at 25 μM concentration in CMV polymerase assay
Protocol: The compounds of the present invention are tested in an polymerase assay to show activity described below, which is indicative of a compound's activity and thus of its use as an anti-viral agent.
The HCMV polymerase assay is performed using a scintillation proximity assay (SPA) as described in several references, such as N. D. Cook, et al., Pharmaceutical Manufacturing International, pages 49-53 (1992); K. Takeuchi, Laboratory Practice, September issue (1992); U.S. Pat. No. 4,568,649 (1986); which are incorporated by reference herein. Reactions are performed in 96-well plates. The assay is conducted in 100 μl volume with 5.4 mM HEPES (pH 7.5), 11.7 mM KCl, 4.5 mM MgCl2, 0.36 mg/ml BSA, and 90 nM ^3 H-dTTP. Assays are run with and without CHAPS, (3-[(3-Cholamidopropyl)-dimethylammonio]-1-propanesulfonate) at a final concentration of 2 mM. HCMV is diluted in enzyme dilution buffer containing 50% glycerol, 250 mM NaCl, 10 mM HEPES (pH 7.5), 100 μg/ml BSA, and 0.01% sodium azide. The HCMV polymerase, which is expressed in recombinant baculovirus-infected SF-9 cells and purified according to literature procedures, is added at 10% (or 10 μl) of the final reaction volume, i.e., 100 μl. Compounds are diluted in 50% DMSO and 10 μl are added to each well. Control wells contain an equivalent concentration of DMSO. Unless noted otherwise, reactions are initiated via the addition of 6 nM biotinylated poly(dA)-oligo(dT) template/primer to reaction mixtures containing the enzyme, substrate, and compounds of interest. Plates are incubated in a 25° C. or 37° C. H2 O bath and terminated via the addition of 40 μl/reaction of 0.5 M EDTA (pH 8) per well. Reactions are terminated within the time-frame during which substrate incorporation is linear and varied depending upon the enzyme and conditions used, i.e., 30 min. for HCMV polymerase. Ten μl of streptavidin-SPA beads (20 mg/ml in PBS/10% glycerol) are added following termination of the reaction. Plates are incubated 10 min. at 37° C., then equilibrated to room temperature, and counted on a Packard Topcount.
In TABLE 1, "MS" refers to mass spectral data, "% inhib" refers to percentage of inhibition at 25 μM concentration in CMV polymerase assay.

T1 sequence (P08546 whole entry): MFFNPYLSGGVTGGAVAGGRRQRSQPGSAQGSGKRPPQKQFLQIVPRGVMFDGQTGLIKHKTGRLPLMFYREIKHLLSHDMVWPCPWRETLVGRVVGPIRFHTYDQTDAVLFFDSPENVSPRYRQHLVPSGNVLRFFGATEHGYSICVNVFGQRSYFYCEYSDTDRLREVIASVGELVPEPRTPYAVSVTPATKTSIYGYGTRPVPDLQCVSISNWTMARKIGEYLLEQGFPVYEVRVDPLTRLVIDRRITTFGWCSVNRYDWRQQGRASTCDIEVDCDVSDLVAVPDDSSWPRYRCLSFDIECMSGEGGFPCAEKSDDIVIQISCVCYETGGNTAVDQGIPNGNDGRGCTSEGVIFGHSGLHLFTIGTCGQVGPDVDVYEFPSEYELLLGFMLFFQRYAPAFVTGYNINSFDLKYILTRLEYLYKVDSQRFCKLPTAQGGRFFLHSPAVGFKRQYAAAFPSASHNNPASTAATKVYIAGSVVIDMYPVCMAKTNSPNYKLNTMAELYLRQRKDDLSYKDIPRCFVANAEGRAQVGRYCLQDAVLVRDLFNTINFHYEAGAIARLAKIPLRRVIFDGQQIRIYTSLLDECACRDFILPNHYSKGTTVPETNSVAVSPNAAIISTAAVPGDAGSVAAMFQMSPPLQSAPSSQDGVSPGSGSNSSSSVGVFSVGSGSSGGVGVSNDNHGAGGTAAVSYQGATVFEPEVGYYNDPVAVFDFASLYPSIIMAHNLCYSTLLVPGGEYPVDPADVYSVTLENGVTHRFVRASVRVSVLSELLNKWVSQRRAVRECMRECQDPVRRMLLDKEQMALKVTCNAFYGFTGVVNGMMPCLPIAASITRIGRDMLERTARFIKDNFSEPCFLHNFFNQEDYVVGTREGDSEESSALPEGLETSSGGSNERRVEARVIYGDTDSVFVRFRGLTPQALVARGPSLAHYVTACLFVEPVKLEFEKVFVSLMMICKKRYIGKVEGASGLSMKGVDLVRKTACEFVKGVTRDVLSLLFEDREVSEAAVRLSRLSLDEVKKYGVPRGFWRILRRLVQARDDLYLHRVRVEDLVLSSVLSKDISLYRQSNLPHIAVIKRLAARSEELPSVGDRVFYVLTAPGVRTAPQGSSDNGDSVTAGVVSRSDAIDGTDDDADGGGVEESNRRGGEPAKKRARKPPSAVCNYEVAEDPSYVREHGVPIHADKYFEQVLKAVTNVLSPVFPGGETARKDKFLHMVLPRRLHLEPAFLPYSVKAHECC

inhibition at 25 µM [%]	Compound	% Inhib [%]
65.7	O=C(/C=C/c1ccccc1Cl)Nc1nnc(NCCc2c[nH]cn2)s1 [compound 98, (E)-3-(2-chlorophenyl)-N-(5-{[2-(1H-imidazol-4-yl)ethyl]amino}-1,3,4-thiadiazol-2-yl)-2-propenamide]	
66.5	NS(=O)(=O)c1ccc(CNc2nnc(NC(=O)/C=C/c3ccccc3Cl)s2)cc1 [compound 88, (E)-N-(5-{[4-(aminosulfonyl)benzyl]amino}-1,3,4-thiadiazol-2-yl)-3-(2-chlorophenyl)-2-propenamide]	
66.1	O=C(Nc1nnc(NCCc2cccs2)s1)c1c(Cl)cccc1Cl [compound 92, 2,6-dichloro-N-(5-{[2-(2-thienyl)ethyl]amino}-1,3,4-thiadiazol-2-yl)benzamide]	
42.1	CCOc1ccc2ccccc2c1C(=O)Nc1nnc(NCC(C)(C)C)s1 [compound 233, 2-ethoxy-N-[5-(neopentylamino)-1,3,4-thiadiazol-2-yl]-1-naphthamide]	
39.5	O=C(/C=C/c1ccccc1)Nc1nnc(NCCc2ccccc2)s1 [compound 262, (E)-N-[5-(phenethylamino)-1,3,4-thiadiazol-2-yl]-3-phenyl-2-propenamide]	
21.2	O=C(Nc1nnc(NCCN2CCOCC2)s1)c1cc2ccccc2s1 [compound 453, N-{5-[(2-morpholinoethyl)amino]-1,3,4-thiadiazol-2-yl}-1-benzothiophene-2-carboxamide]	
100	CCCCCCCCCCCNc1nnc(NC(=O)c2ccc3c(c2)C(=O)OC3=O)s1 [compound 4, 1,3-dioxo-N-[5-(undecylamino)-1,3,4-thiadiazol-2-yl]-1,3-dihydro-2-benzofuran-5-carboxamide]	
32.2	O=C(Nc1nnc(NCCc2c[nH]cn2)s1)c1cc2ccccc2s1 [compound 330]	
39.1	CC(C)c1cc(C(C)C)c(C(=O)Nc2nnc(NC3CCN(Cc4ccccc4)CC3)s2)c(C(C)C)c1 [compound 265, N-{5-[(1-benzyl-4-piperidinyl)amino]-1,3,4-thiadiazol-2-yl}-2,4,6-triisopropylbenzamide]	
36.7	CCCCCCCC/C=C/CCCCCCCC(=O)Nc1nnc(NCC2CCCCC2)s1 [compound 285, (E)-N-{5-[(cyclohexylmethyl)amino]-1,3,4-thiadiazol-2-yl}-9-octadecenamide]	
66	CCOc1ccc2ccccc2c1C(=O)Nc1nnc(NC2CCCc3ccccc32)s1 (stereo not drawn) [compound 93, 2-ethoxy-N-[5-(1,2,3,4-tetrahydro-1-naphthaienylamino)-1,3,4-thiadiazol-2-yl]-1-naphthamide]	
36.3	CCCCCCCC/C=C/CCCCCCCC(=O)Nc1nnc(NCC(CC)CCCC)s1 (stereo not drawn) [compound 286, (E)-N-{5-[(2-ethylhexyl)amino]-1,3,4-thiadiazol-2-yl}-9-octadecenamide]	
34.6	COc1ccccc1C(=O)Nc1nnc(NCC2CCCCC2)s1 [compound 304, N-{5-[(cyclohexylmethyl)amino]-1,3,4-thiadiazol-2-yl}-2-methoxybenzamide]	
23.2	COc1ccccc1C(=O)Nc1nnc(NCCCCc2ccccc2)s1 [compound 429, 2-methoxy-N-{5-[(4-phenylbutyl)amino]-1,3,4-thiadiazol-2-yl}benzamide]	
33.6	O=C(CCCCCl)Nc1nnc(NC2CCCCCC2)s1 [compound 316, 5-chloro-N-[5-(cycloheptylamino)-1,3,4-thiadiazol-2-yl]pentanamide]	
40.8	CC(C)c1cc(C(C)C)c(C(=O)Nc2nnc(NCCNc3ccccc3)s2)c(C(C)C)c1 [compound 248, N-{5-[(2-anilinoethyl)amino]-1,3,4-thiadiazol-2-yl}-2,4,6-triisopropylbenzamide]	
87.3	CCCCCCCC/C=C/CCCCCCCC(=O)Nc1nnc(NCC(c2ccccc2)c2ccccc2)s1 [compound 38, (E)-N-{5-[(2,2-diphenylethyl)amino]-1,3,4-thiadiazol-2-yl}-9-octadecenamide]	
29.9	O=C(CCCCCl)Nc1nnc(NCCc2ccccc2)s1 [compound 354, 5-chloro-N-[5-(phenethylamino)-1,3,4-thiadiazol-2-yl]pentanamide]	

inhibition at 25 µM [%]	Compound	% Inhib [%]
20.3	N#Cc1ccc(C(=O)Nc2nnc(NCCN3CCOCC3)s2)cc1 [compound 464, 4-cyano-N-{5-[(2-morpholinoethyl)amino]-1,3,4-thiadiazol-2-yl}benzamide]	
25	CCSCCNc1nnc(NC(=O)c2ccc(C(F)(F)F)cc2)s1 [compound 406, N-(5-{[2-(ethylsulfanyl)ethyl]amino}-1,3,4-thiadiazol-2-yl)-4-(trifluoromethyl)benzamide]	
23.6	CC(C)c1cc(C(C)C)c(C(=O)Nc2nnc(NCc3cccs3)s2)c(C(C)C)c1 [compound 424, 2,4,6-triisopropyl-N-{5-[(2-thienylmethyl)amino]-1,3,4-thiadiazol-2-yl}benzamide]	
76.3	NS(=O)(=O)c1ccc(CNc2nnc(NC(=O)c3ccc(I)cc3)s2)cc1 [compound 57, N-(5-{[4-(aminosulfonyl)benzyl]amino}-1,3,4-thiadiazol-2-yl)-4-iodobenzamide]	
23.1	O=C(Nc1nnc(NCCc2cccs2)s1)c1ccc(I)cc1 [compound 430, 4-iodo-N-(5-{[2-(2-thienyl)ethyl]amino}-1,3,4-thiadiazol-2-yl)benzamide]	
62.1	O=C(/C=C/c1ccccc1)Nc1nnc(NCCSc2ccccc2)s1 [compound 114, (E)-3-phenyl-N-(5-{[2-(phenylsulfanyl)ethyl]amino}-1,3,4-thiadiazol-2-yl)-2-propenamide]	
49.7	O=C(Nc1nnc(NCCCNC2CCCCC2)s1)c1ccc(Cl)c(Cl)c1 [compound 172, 3,4-dichloro-N-(5-{[3-(cyclohexylamino)propyl]amino}-1,3,4-thiadiazol-2-yl)benzamide]	
23.8	O=C(Nc1nnc(NCc2ccc(F)cc2)s1)c1ccc(F)cc1F [compound 423, 2,4-difluoro-N-{5-[(4-fluorobenzyl)amino]-1,3,4-thiadiazol-2-yl}benzamide]	
24.9	O=C(Nc1nnc(NCCNc2ccccc2)s1)c1ccc(Cl)c(Cl)c1 [compound 408, N-{5-[(2-anilinoethyl)amino]-1,3,4-thiadiazol-2-yl}-3,4-dichlorobenzamide]	
99.9	O=C(Nc1nnc(NCCNc2ccccc2)s1)c1ccc2c(c1)C(=O)OC2=O [compound 6, N-{5-[(2-anilinoethyl)amino]-1,3,4-thiadiazol-2-yl}-1,3-dioxo-1,3-dihydro-2-benzofuran-5-carboxamide]	
53.9	NS(=O)(=O)c1ccc(CCNc2nnc(NC(=O)c3ccc(Br)cc3)s2)cc1 [compound 152, N-(5-{[4-(aminosulfonyl)phenethyl]amino}-1,3,4-thiadiazol-2-yl)-4-bromobenzamide]	
40.9	O=C(Nc1nnc(NCc2ccco2)s1)c1ccc(Cl)c(Cl)c1 [compound 247, 3,4-dichloro-N-{5-[(2-furylmethyl)amino]-1,3,4-thiadiazol-2-yl}benzamide]	
24.4	O=C(Nc1nnc(NC2CCCCCC2)s1)c1ccc(Cl)c(Cl)c1 [compound 418, 3,4-dichloro-N-[5-(cycloheptylamino)-1,3,4-thiadiazol-2-yl]benzamide]	
72.2	CCCCCCCCCCCNc1nnc(NC(=O)c2ccc(C#N)cc2)s1 [compound 65, 4-cyano-N-[5-(undecylamino)-1,3,4-thiadiazol-2-yl]benzamide]	
49.5	CC(C)c1cc(C(C)C)c(C(=O)Nc2nnc(NCc3cccc4ccccc34)s2)c(C(C)C)c1 [compound 173, 2,4,6-triisopropyl-N-{5-[(1-naphthylmethyl)amino]-1,3,4-thiadiazol-2-yl}benzamide]	
24.6	O=C(Nc1nnc(NCCc2ccccc2)s1)c1ccc(I)cc1 [compound 415, 4-iodo-N-[5-(phenethylamino)-1,3,4-thiadiazol-2-yl]benzamide]	
	O=C(Nc1nnc(NCC(c2ccccc2)c2ccccc2)s1)c1ccc(S(=O)(=O)F)cc1 [compound 111, 4-[({5-[(2,2-diphenylethyl)amino]-1,3,4-thiadiazol-2-yl}amino)carbonyl]benzenesulfonyl fluoride]	62.6
38.1	O=C(/C=C/c1ccccc1)Nc1nnc(NC2CCCCCC2)s1 [compound 274, (E)-N-[5-(cycloheptylamino)-1,3,4-thiadiazol-2-yl]-3-phenyl-2-propenamide]	
